From the supplement of paper PMC12205070

Tests used:
Test in all cases: normalised number of viable cells after treatment (fraction of control); higher = more viable cells (less drug effect)
P1 Initial = tested on: P1 Initial (T-ALL xenograft cells from diagnosis)
Procedure: (§1)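 T-ALL PDX-derived cells (initial diagnosis or relapse samples of individual patients) co-cultured on hTERT-immortalized bone marrow MSCs in 384-well plates were treated with Cytarabine, Venetoclax, S-63845, A1331852 or FX1 (0.1 nM to 10,000 nM) for 72 h.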

P1 Relapse = tested on: P1 Relapse (T-ALL xenograft cells from relapse)
Procedure: as §1

P10 Initial = tested on: P10 Initial (T-ALL xenograft cells from diagnosis)
Procedure: as §1

P10 Relapse = tested on: P10 Relapse (T-ALL xenograft cells from relapse)
Procedure: as §1

P12 Initial = tested on: P12 Initial (T-ALL xenograft cells from diagnosis)
Procedure: as §1

P12 Relapse = tested on: P12 Relapse (T-ALL xenograft cells from relapse)
Procedure: as §1

P2 Initial = tested on: P2 Initial (T-ALL xenograft cells from diagnosis)
Procedure: as §1

P2 Relapse = tested on: P2 Relapse (T-ALL xenograft cells from relapse)
Procedure: as §1

P6 Initial = tested on: P6 Initial (T-ALL xenograft cells from diagnosis)
Procedure: as §1

P6 Relapse = tested on: P6 Relapse (T-ALL xenograft cells from relapse)
Procedure: as §1

P8 Initial = tested on: P8 Initial (T-ALL xenograft cells from diagnosis)
Procedure: as §1

P8 Relapse = tested on: P8 Relapse (T-ALL xenograft cells from relapse)
Procedure: as §1

P3 Initial = tested on: P3 Initial (T-ALL xenograft cells from diagnosis)
Procedure: as §1

P3 Relapse = tested on: P3 Relapse (T-ALL xenograft cells from relapse)
Procedure: as §1

Cc1c(-c2c(-c3ccc(F)o3)sc3ncnc(O[C@H](Cc4ccccc4OCc4ccnn4CC(F)(F)F)C(=O)O)c23)ccc(OCCN2CCN(C)CC2)c1Cl
normalised number of viable cells
Conditions | 0.125 nM | 0.13 nM | 1 nM | 1.25 nM | 12.5 nM | 31.25 nM | 100 nM | 625 nM | 1250 nM | 10000 nM
P1 Initial | 1.16 | – | 1.05 | – | 0.838 | – | 0.231 | – | 0.054 | 0.0485
P1 Relapse | – | 1.26 | – | 1.15 | – | 0.987 | – | 0.131 | – | 0.039
P2 Initial | – | 0.99 | – | 0.918 | – | 0.86 | – | 0.197 | – | 0.129
P2 Relapse | – | 1.05 | – | 1.04 | – | 0.878 | – | 0.7035 | – | 0.068
P6 Initial | – | 1.02 | – | 1.08 | – | 0.638 | – | 0.0605 | – | 0.022
P6 Relapse | – | 1.07 | – | 0.884 | – | 1.02 | – | 0.483 | – | 0.035
P8 Initial | – | 1.09 | – | 1.08 | – | 1.04 | – | 0.54 | – | 0.0315
P8 Relapse | – | 0.992 | – | 1.05 | – | 1.02 | – | 0.9355 | – | 0.0655
P10 Initial | – | 1.29 | – | 1.17 | – | 0.639 | – | 0.225 | – | 0.0835
P10 Relapse | – | 1.02 | – | 1.15 | – | 1.08 | – | 0.785 | – | 0.0695
P12 Initial | – | 1.05 | – | 0.991 | – | 0.58 | – | 0.337 | – | 0.0575
P12 Relapse | – | 0.277 | – | 1.52 | – | 0.199 | – | 0.048 | – | 0.0695

Cc1c(-c2ccc(N3CCc4cccc(C(=O)Nc5nc6ccccc6s5)c4C3)nc2C(=O)O)cnn1CC12CC3CC(CC(C3)C1)C2
normalised number of viable cells
Conditions | 0.125 nM | 0.13 nM | 1 nM | 1.25 nM | 12.5 nM | 31.25 nM | 100 nM | 625 nM | 1250 nM | 10000 nM
P1 Initial | 1.07 | – | 0.741 | – | 0.429 | – | 0.38 | – | 0.172 | 0.0585
P1 Relapse | – | 1.092 | – | 1 | – | 0.758 | – | 0.443 | – | 0.104
P2 Initial | – | 0.972 | – | 0.785 | – | 0.5015 | – | 0.407 | – | 0.2125
P2 Relapse | – | 0.839 | – | 0.588 | – | 0.115 | – | 0.0705 | – | 0.0555
P6 Initial | – | 0.809 | – | 0.331 | – | 0.037 | – | 0.023 | – | 0.0205
P6 Relapse | – | 0.953 | – | 0.907 | – | 0.827 | – | 0.883 | – | 0.834
P8 Initial | – | 1.17 | – | 0.883 | – | 0.704 | – | 0.673 | – | 0.4885
P8 Relapse | – | 0.838 | – | 0.861 | – | 0.721 | – | 0.515 | – | 0.321
P10 Initial | – | 0.894 | – | 0.32 | – | 0.163 | – | 0.0735 | – | 0.031
P10 Relapse | – | 0.98 | – | 0.69 | – | 0.547 | – | 0.341 | – | 0.149
P12 Initial | – | 0.976 | – | 0.093 | – | 0.151 | – | 0.084 | – | 0.054
P12 Relapse | – | 2.48 | – | 0.433 | – | 0.132 | – | 0.075 | – | 0.0555

Nc1ccn([C@@H]2O[C@H](CO)[C@@H](O)[C@@H]2O)c(=O)n1 [Cytarabine]
Conditions | normalised number of viable cells
P1 Initial, 0.125 nM | 0.988
P1 Initial, 1 nM | 0.83
P1 Initial, 12.5 nM | 0.396
P1 Initial, 100 nM | 0.245
P1 Initial, 1250 nM | 0.23
P1 Initial, 10000 nM | 0.0865
P1 Relapse, 0.125 nM | 0.84
P1 Relapse, 1 nM | 0.683
P1 Relapse, 12.5 nM | 0.426
P1 Relapse, 100 nM | 0.354
P1 Relapse, 1250 nM | 0.235
P1 Relapse, 10000 nM | 0.224
P2 Initial, 0.998752 nM | 1.83
P2 Initial, 9.98752 nM | 1.97
P2 Initial, 99.8752 nM | 0.894
P2 Initial, 998.752 nM | 0.683
P2 Initial, 9987.52 nM | 0.631
P2 Relapse, 0.998752 nM | 0.981
P2 Relapse, 9.98752 nM | 0.99
P2 Relapse, 99.8752 nM | 0.973
P2 Relapse, 998.752 nM | 0.804
P2 Relapse, 9987.52 nM | 0.61
P3 Initial, 0.998752 nM | 1.04
P3 Initial, 9.98752 nM | 0.855
P3 Initial, 99.8752 nM | 0.14
P3 Initial, 998.752 nM | 0.0925
P3 Initial, 9987.52 nM | 0.0805
P3 Relapse, 0.998752 nM | 1.14
P3 Relapse, 9.98752 nM | 0.684
P3 Relapse, 99.8752 nM | 0.464
P3 Relapse, 998.752 nM | 0.306
P3 Relapse, 9987.52 nM | 0.143
P6 Initial, 0.998752 nM | 0.95
P6 Initial, 9.98752 nM | 0.6575
P6 Initial, 99.8752 nM | 0.454
P6 Initial, 998.752 nM | 0.248
P6 Initial, 9987.52 nM | 0.239
P6 Relapse, 0.998752 nM | 0.745
P6 Relapse, 9.98752 nM | 1.28
P6 Relapse, 99.8752 nM | 1.18
P6 Relapse, 998.752 nM | 0.902
P6 Relapse, 9987.52 nM | 0.852
P8 Initial, 0.998752 nM | 1.67
P8 Initial, 9.98752 nM | 1.54
P8 Initial, 99.8752 nM | 0.489
P8 Initial, 998.752 nM | 0.4715
P8 Initial, 9987.52 nM | 0.577
P8 Relapse, 0.998752 nM | 1.551
P8 Relapse, 9.98752 nM | 1.57
P8 Relapse, 99.8752 nM | 0.744
P8 Relapse, 998.752 nM | 0.821
P8 Relapse, 9987.52 nM | 0.599
P10 Initial, 0.998752 nM | 1.45
P10 Initial, 9.98752 nM | 1.4
P10 Initial, 99.8752 nM | 0.472
P10 Initial, 998.752 nM | 0.426
P10 Initial, 9987.52 nM | 0.427
P10 Relapse, 0.998752 nM | 1.08
P10 Relapse, 9.98752 nM | 1
P10 Relapse, 99.8752 nM | 0.737
P10 Relapse, 998.752 nM | 0.712
P10 Relapse, 9987.52 nM | 0.679
P12 Initial, 0.998752 nM | 1.33
P12 Initial, 9.98752 nM | 1.2
P12 Initial, 99.8752 nM | 0.327
P12 Initial, 998.752 nM | 0.313
P12 Initial, 9987.52 nM | 0.593
P12 Relapse, 0.998752 nM | 4.13
P12 Relapse, 9.98752 nM | 5.01
P12 Relapse, 99.8752 nM | 1.49
P12 Relapse, 998.752 nM | 0.76
P12 Relapse, 9987.52 nM | 0.446

CC1(C)CCC(CN2CCN(c3ccc(C(=O)NS(=O)(=O)c4ccc(NCC5CCOCC5)c([N+](=O)[O-])c4)c(Oc4cnc5[nH]ccc5c4)c3)CC2)=C(c2ccc(Cl)cc2)C1 [Venetoclax]
Conditions | normalised number of viable cells
P1 Initial, 0.125 nM | 1
P1 Initial, 1 nM | 0.841
P1 Initial, 12.5 nM | 0.423
P1 Initial, 100 nM | 0.345
P1 Initial, 1250 nM | 0.259
P1 Initial, 10000 nM | 0.0865
P1 Relapse, 0.125 nM | 1.02
P1 Relapse, 1 nM | 0.911
P1 Relapse, 12.5 nM | 0.504
P1 Relapse, 100 nM | 0.781
P1 Relapse, 1250 nM | 0.352
P1 Relapse, 10000 nM | 0.694
P2 Initial, 0.998752 nM | 1.58
P2 Initial, 9.98752 nM | 1.09
P2 Initial, 99.8752 nM | 0.725
P2 Initial, 998.752 nM | 0.56
P2 Initial, 9987.52 nM | 0.514
P2 Relapse, 0.998752 nM | 1.16
P2 Relapse, 9.98752 nM | 1.37
P2 Relapse, 99.8752 nM | 1.19
P2 Relapse, 998.752 nM | 0.933
P2 Relapse, 9987.52 nM | 0.412
P3 Initial, 0.998752 nM | 0.948
P3 Initial, 9.98752 nM | 0.925
P3 Initial, 99.8752 nM | 0.814
P3 Initial, 998.752 nM | 0.821
P3 Initial, 9987.52 nM | 0.139
P3 Relapse, 0.998752 nM | 1.18
P3 Relapse, 9.98752 nM | 1.15
P3 Relapse, 99.8752 nM | 1.104
P3 Relapse, 998.752 nM | 0.922
P3 Relapse, 9987.52 nM | 0.072
P6 Initial, 0.998752 nM | 1.17
P6 Initial, 9.98752 nM | 0.743
P6 Initial, 99.8752 nM | 0.5415
P6 Initial, 998.752 nM | 0.355
P6 Initial, 9987.52 nM | 0.269
P6 Relapse, 0.998752 nM | 1.31
P6 Relapse, 9.98752 nM | 1.12
P6 Relapse, 99.8752 nM | 0.554
P6 Relapse, 998.752 nM | 0.584
P6 Relapse, 9987.52 nM | 0.169
P8 Initial, 0.998752 nM | 2.58
P8 Initial, 9.98752 nM | 2.56
P8 Initial, 99.8752 nM | 2.09
P8 Initial, 998.752 nM | 1.89
P8 Initial, 9987.52 nM | 2.3
P8 Relapse, 0.998752 nM | 1.21
P8 Relapse, 9.98752 nM | 1.24
P8 Relapse, 99.8752 nM | 1.02
P8 Relapse, 998.752 nM | 0.744
P8 Relapse, 9987.52 nM | 0.732
P10 Initial, 0.998752 nM | 1.39
P10 Initial, 9.98752 nM | 1.41
P10 Initial, 99.8752 nM | 0.954
P10 Initial, 998.752 nM | 0.665
P10 Initial, 9987.52 nM | 0.21
P10 Relapse, 0.998752 nM | 0.866
P10 Relapse, 9.98752 nM | 1.17
P10 Relapse, 99.8752 nM | 0.717
P10 Relapse, 998.752 nM | 0.313
P10 Relapse, 9987.52 nM | 0.13
P12 Initial, 0.998752 nM | 1.15
P12 Initial, 9.98752 nM | 1.21
P12 Initial, 99.8752 nM | 0.923
P12 Initial, 998.752 nM | 0.978
P12 Initial, 9987.52 nM | 0.0715
P12 Relapse, 0.998752 nM | 5.7
P12 Relapse, 9.98752 nM | 4.1
P12 Relapse, 99.8752 nM | 4.2
P12 Relapse, 998.752 nM | 4.43
P12 Relapse, 9987.52 nM | 0.845
